This note sets out measurements from US20170050966A1, “INHIBITING THE TRANSIENT RECEPTOR POTENTIAL A1 ION CHANNEL” (HYDRA BIOSCIENCES, INC., priority 2014, published 2017).

In brackets after ≈: the same amount, converted by molar mass. Read-outs that look alike come from different tables or passages of the source.

One series has as its target T1, human TRPA1 (hTRPA1) (Homo sapiens, UniProt O75762).
T1 construct: expressed in transfected cells
The experiment in a line: Inhibition of human TRPA1, whole-cell patch clamp. In kind it is cell-based. The protocol: Data for TRPA1 inhibition was obtained by this method for the indicated compounds of Formula (I), with the relevant data included in Table 14 below. All currents were recorded in whole-cell configuration using EPC-9 and EPC-10 amplifiers and Patchmaster software (HEKA). […] The standard pipette solution consisted of 140 mM CsAsp, 10 mM EGTA, 10 mM HEPES, […], 1.91 mM CaCl2, and up to 0.3 mM Na2GTP, with pH adjusted to 7.2 with CsOH. In addition, a solution containing 145 mM CsCl, 10 mM HEPES, 10 mM EGTA, and up to 0.3 mM Na2GTP and 1 mM MgCl2 (pH 7.2 adjusted with CsOH) can be used. The standard bath solution contained 150 mM NaCl, 10 mM HEPES, 10 mM glucose, 4.5 mM KCl, 1 mM EGTA, 3 mM MgCl2, with pH adjusted to 7.4 with NaOH. In some instances, 2 mM CaCl2 was added in place of EGTA and the concentration of MgCl2 was reduced to 1 mM.
Data were collected either by continuous recordings at −60 mV or by applying voltage ramps from a holding potential of 0 mV every 4 s. Continuous recordings were collected at 400 Hz and digitally filtered off-line at 10 Hz for presentation. Voltage ramps were applied from −100 mV to 100 mV over the course of 400 ms, and data were collected at 10 kHz and filtered at […]. Inward and outward currents were analyzed from the ramps at −80 and 80 mV, respectively. Liquid junction potential correction was not used.
Solutions were switched using a gravity-fed continuous focal perfusion system. To achieve rapid temperature changes, two temperature control, and perfusion systems were employed simultaneously. For temperatures greater than or equal to 22° C., a Warner Instruments bipolar temperature controller (TC-344B) and inline heater (SHM-8) were used. […] Temperatures were confirmed using a thermistor (Warner Instruments, TA-29), with temperatures at the recorded cell estimated to be within +/−2° C. of those reported.
The antagonist effects of compounds of Formula (I) against human TRPA1 (“hTRPA1”) in a whole cell patch configuration were evaluated using the in vitro assay protocol described above.
(In general: In patch-clamp work, channel activity is measured electrically.)

The nature of series [1]: Solubility in Normal Ringer Solution. The following applies: aqueous buffer, kinetic from dmso stock, pH 7.4, room temperature. Format: physicochemical. The method, then: Compounds of the invention were also tested for solubility in Normal Ringer Solution. […] Following vortex and incubation for 40 minutes at room temperature, solutions were filtered, quenched with acetonitrile, and analyzed by liquid chromatography. Solubility limits were determined by comparison to a standard curve. […] Solubility is reported as “greater than” if the observed increase between the last 2 dilutions tested is greater than 2-fold.

A short description of series [2]: Metabolic stability in liver microsomes. In kind it is in vitro ADME. The protocol:
(§1) Metabolic stability of the compounds of Formula (I) was determined by standard liver microsome assays. Briefly, metabolic stability was tested by adding the compound to be tested dissolved in DMSO to human, dog, or rat liver microsomes. Assays were run with a starting concentration of 1 μM test compound. The reaction was initiated by addition of nicotinamide adenine dinucleotide phosphate[…] (NADPH) regeneration components at 37° C., at which time an aliquot was immediately quenched in an ice-cold acetonitrile/methanol/water solution. Reaction mixture was incubated at 37° C. on a shaker, and additional aliquots were taken at 7, 15, 30 and 60 minutes. Following quench and centrifugation, samples were analyzed on HPLC/MS/MS.
For orientation: Microsomes from liver hold many membrane-bound enzymes, among them those of drug oxidation.

Series [3] in a line: Oral bioavailability of solutions in non-fasted rats. The following applies: rat, in vivo, oral solution, read-out: Rat % F. The protocol:
Early bioavailability studies in rat were conducted with solutions of the compounds of the invention. Compounds were delivered via oral administration as a solution in an appropriate excipient. Example formulations include, but are not limited to: 4% DMSO, 10% Solutol HS-15, and 86% water or 4% DMSO, 5% Tween, 25% Cremophor EL. Target concentrations were typically 1 mg/mL, and administered via oral gavage to non-fasted rats. The absolute bioavailability is the dose-corrected area under the curve (AUC) non-intravenous divided by the dose corrected AUC intravenous. The formula for calculating F for a drug administered by the oral route (PO) is given below:
% F=AUC PO×Dose IV/AUC IV×Dose PO

Series [4] can be described thus: Metabolic stability in liver microsomes. In kind it is in vitro ADME, human. The following applies: 1 μM test compound; for half-life at 1 μM: human, liver microsomes, 37° C. The protocol:
as §1

Setting [5] is: antagonist effect, whole cell patch configuration, read-out: hTRPA1.
Where [6] appears, read: dog liver microsomes, female, read-out: Female Half-Life.
Setting [7] is: rat liver microsomes, both sexes, read-out: Half-Life Both sexes.
[8] abbreviates: rat liver microsomes, male, read-out: Male Half-Life.

T1 sequence (O75762 whole entry): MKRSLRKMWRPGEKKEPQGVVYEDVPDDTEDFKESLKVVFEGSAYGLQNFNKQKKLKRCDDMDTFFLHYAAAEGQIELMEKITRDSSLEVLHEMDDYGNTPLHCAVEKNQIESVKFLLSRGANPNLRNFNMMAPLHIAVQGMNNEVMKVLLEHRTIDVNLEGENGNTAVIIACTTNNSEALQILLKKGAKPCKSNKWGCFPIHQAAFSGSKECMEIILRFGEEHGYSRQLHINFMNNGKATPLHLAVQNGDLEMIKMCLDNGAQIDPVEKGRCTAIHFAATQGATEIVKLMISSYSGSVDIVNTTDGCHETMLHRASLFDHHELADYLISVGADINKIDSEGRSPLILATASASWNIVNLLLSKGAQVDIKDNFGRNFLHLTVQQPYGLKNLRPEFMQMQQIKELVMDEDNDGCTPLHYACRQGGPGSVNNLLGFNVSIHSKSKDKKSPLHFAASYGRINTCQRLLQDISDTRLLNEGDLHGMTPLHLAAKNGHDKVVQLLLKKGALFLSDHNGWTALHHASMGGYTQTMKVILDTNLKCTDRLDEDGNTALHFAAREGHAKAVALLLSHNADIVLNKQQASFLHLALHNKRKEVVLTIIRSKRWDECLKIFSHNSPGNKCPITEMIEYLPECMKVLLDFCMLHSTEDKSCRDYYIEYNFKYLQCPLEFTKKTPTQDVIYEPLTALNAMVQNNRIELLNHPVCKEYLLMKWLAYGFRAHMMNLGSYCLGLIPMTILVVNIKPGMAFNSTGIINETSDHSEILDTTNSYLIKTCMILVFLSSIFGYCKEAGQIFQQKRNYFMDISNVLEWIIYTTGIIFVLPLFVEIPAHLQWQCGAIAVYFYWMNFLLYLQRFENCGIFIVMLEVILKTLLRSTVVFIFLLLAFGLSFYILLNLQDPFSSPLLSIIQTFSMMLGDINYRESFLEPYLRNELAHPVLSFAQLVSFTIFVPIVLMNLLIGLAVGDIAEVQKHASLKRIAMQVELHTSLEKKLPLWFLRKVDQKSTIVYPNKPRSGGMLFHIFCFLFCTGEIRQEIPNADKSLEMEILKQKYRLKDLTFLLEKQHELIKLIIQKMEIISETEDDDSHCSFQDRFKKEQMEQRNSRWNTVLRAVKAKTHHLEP

As usually defined, the solubility is how much of the substance goes into solution per volume. Usually half-life stands for the time needed for the level to fall by half in the phase considered. `C[C@@H](C(=O)Nc1ccnc(-c2cnc(N3CCCC3(C)C)nc2)n1)n1cnc2c1c(=O)n(C)c(=O)n2C` [Compound 1, (S)-2-(1,3-dimethyl-2,6-dioxo-2,3-dihydro-1H-purin-7(6H)-yl)-N-(2′-(2,2-dimethylpyrrolidin-1-yl)-[2,5′-bipyrimidin]-4-yl)propanamide]: the IC50 at human TRPA1 (hTRPA1) (setting [5]) was 5.15 nM. The solubility at 40 min in series [1] is over 14.3 µM. Also, the “Female Hepatic Clearance” value in series [2] (dog liver microsomes, female) is on record as 18 mL/min/kg; in series [2] (rat liver microsomes, female), 20 mL/min/kg. For the same molecule, the half-life at 1 μM in series [2] (setting [6]) stood at 18 min; in series [2] (dog liver microsomes, male, read-out: Male Half-Life), 10 min; in series [2] (setting [7]), 39.2 min; in series [2] (rat liver microsomes, female, read-out: Female Half-Life) it was 46 min; in series [2] (setting [8]), 22 min; in series [4], 9 min. The “Male Hepatic Clearance” value in series [2] (dog liver microsomes, male) was 22 mL/min/kg; in series [2] (rat liver microsomes, male), 29 mL/min/kg. In addition, in series [3], the bioavailability was determined as 46%. The “Human Liver Microsomes Hepatic Clearance” value in series [4] is 16 mL/min/kg.
As to `C[C@@H](C(=O)Nc1ccnc(-c2cnc(N3CCC[C@H]3C(F)(F)F)nc2)n1)n1cnc2c1c(=O)n(C)c(=O)n2C` [Compound 2, (S)-2-(1,3-dimethyl-2,6-dioxo-2,3-dihydro-1H-purin-7(6H)-yl)-N-(2′-((S)-2-(trifluoromethyl)pyrrolidin-1-yl)-[2,5′-bipyrimidin]-4-yl)propanamide], the IC50 on human TRPA1 (hTRPA1) (setting [5]) worked out at 6.87 nM; at human TRPA1 (hTRPA1) (hTRPA1, 10 μM AITC, read-out: IC50 Inward current) it was 6.9 ± 3.1 nM. The solubility at 40 min in series [1] was about 32.4 µM (≈ 17.6 µg/mL). Moreover, the half-life at 1 μM in series [2] (dog liver microsomes, both sexes, read-out: Half-Life both sexes) is 22.9 min; in series [2] (setting [6]) it was 22.9 min; in series [2] (setting [7]), over 60 min; in series [2] (setting [8]) it was 787 min; in series [4], 43 min. For the same molecule, the “Male Hepatic Clearance” value in series [2] (rat liver microsomes, male) is listed as 2 mL/min/kg. Also, the bioavailability in series [3] was 100%. Also, the “Human Liver Microsomes Hepatic Clearance” value in series [4] turned out to be 8 mL/min/kg.
`C[C@@H](C(=O)Nc1ccnc(-c2cnc(N3CCC[C@@H]3C(F)(F)F)nc2)n1)n1cnc2c1c(=O)n(C)c(=O)n2C` [Compound 4, (S)-2-(1,3-dimethyl-2,6-dioxo-2,3-dihydro-1H-purin-7(6H)-yl)-N-(2′-((R)-2-(trifluoromethyl)pyrrolidin-1-yl)-[2,5′-bipyrimidin]-4-yl)propanamide]: the IC50 on human TRPA1 (hTRPA1) (setting [5]) is 11.3 nM. The same molecule displayed a solubility at 40 min in series [1] of over 31.3 µM. Also, the half-life at 1 μM is 72.6 min in series [2] (setting [7]) and 19.8 min in series [4]. The bioavailability in series [3] is 100%.
